Reference: patent US20240209011A1, “HETEROAROMATIC PHOSPHONIUM SALTS FOR TREATING CANCER” (FLORATEK PHARMA S.A., priority 2021, published 2024)
Marks after values point to notes of the source that are not given here.

Assays:
K562 CDX = assay: In vivo tumour inhibition of xenograft leukemia model K562; details: K562 CDX in NOG mice; for Optimal T/C (value): day 17 after tumour transplantation, median tumour volume treated/control; for tumour growth inhibition: i.p. daily, T/C at day 17 after tumour transplantation
Experimental: In vivo activity against a number of CDX were evaluated in various nude or SCID mice. Tumour cells were inoculated subcutaneous (s.c) into the mice flank. Mice were randomized into groups when tumours were around 100-200 mm^3. A vehicle control group (2.5-4% DMSO, 5% EtOH, 20% PEG200 in saline) was part of each experiment. Treatment was administered intraperitoneally (i.p.) 3 times a week or daily (qd).
Body weight was measured before each treatment and treatments of individual mice was paused, when the body weight loss was >15%. Tumor volumes were measured 2×/week. Mice were individually sacrificed, when the tumor volume reached the volume specified in the laboratory internal SOP.
The tumour inhibition growth was assessed as the optimal T/C, where T represents the median tumour volume of the treated group and C represents the median tumour volume of the control (vehicle) group. Statistical analysis was performed using two way RM ANOVA with p values […] considered statistically significant.
Test compounds were evaluated for the in vivo inhibition activity against the chronic myelogenous leukemia CDX in NOG mice. 1×10^7 cells were injected s.c. into the left flank at day 0. Mice were stratified into groups of 10 mice each with a mean tumor volume of 109±35 mm^3 and the treatment was administered i.p. daily.

ABL1-phosphorylated = molecular target: T1, ABL1-phosphorylated (Homo sapiens, UniProt P00519); assay: KINOMEscan competition binding assay, Kd; details: 11-point 3-fold dilution series
T1 construct: purchased Eurofins (KINOMEscan); host or cells: T7 phage in BL21-derived E. coli, or HEK-293
T1 sequence (P00519 whole entry): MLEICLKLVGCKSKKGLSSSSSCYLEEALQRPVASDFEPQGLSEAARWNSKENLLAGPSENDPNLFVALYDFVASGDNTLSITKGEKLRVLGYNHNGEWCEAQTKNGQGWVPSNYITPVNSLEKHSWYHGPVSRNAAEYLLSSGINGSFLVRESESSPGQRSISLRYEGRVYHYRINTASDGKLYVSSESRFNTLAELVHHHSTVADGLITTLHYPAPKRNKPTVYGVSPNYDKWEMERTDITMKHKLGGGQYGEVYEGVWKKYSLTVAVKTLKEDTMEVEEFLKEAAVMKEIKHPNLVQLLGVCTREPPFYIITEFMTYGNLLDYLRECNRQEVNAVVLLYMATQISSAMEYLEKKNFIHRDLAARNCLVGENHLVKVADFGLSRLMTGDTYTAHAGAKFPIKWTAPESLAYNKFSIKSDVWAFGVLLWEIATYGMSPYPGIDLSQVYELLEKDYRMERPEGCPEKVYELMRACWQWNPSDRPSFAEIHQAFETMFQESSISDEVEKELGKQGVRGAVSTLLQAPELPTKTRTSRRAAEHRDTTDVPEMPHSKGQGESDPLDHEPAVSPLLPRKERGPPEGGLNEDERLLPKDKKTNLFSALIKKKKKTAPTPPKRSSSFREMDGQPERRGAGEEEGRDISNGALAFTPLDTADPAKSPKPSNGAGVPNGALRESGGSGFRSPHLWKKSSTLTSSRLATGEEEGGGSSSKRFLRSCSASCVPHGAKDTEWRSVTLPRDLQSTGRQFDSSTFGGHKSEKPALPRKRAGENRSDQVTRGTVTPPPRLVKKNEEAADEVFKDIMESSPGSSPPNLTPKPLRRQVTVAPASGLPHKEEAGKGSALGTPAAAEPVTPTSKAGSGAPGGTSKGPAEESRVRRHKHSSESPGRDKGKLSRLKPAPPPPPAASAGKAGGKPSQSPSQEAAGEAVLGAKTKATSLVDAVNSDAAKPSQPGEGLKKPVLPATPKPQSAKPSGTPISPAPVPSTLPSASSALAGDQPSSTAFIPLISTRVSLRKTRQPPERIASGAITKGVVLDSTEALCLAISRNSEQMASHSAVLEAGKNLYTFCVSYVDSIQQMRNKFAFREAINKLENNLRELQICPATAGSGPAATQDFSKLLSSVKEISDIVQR
Experimental: (§1) Selected compounds were screened for kinase inhibition using the KINOMEscan™ assay (Eurofins) which is based on a competition binding assay that quantitatively measures the ability of a compound to compete with an immobilized, active-site directed ligand. The assay was performed by combining three components: DNA-tagged kinase; immobilized ligand; and the test compound. The ability of the test compound to compete with the immobilized ligand was measured via quantitative PCR of the DNA tag.
(§2) Kinase-tagged T7 phage strains were prepared in an E. coli host derived from the BL21 strain. E. coli were grown to log-phase and infected with T7 phage and incubated with shaking at 32° C. until lysis. The lysates were centrifuged and filtered to remove cell debris. The remaining kinases were produced in HEK-293 cells and subsequently tagged with DNA for qPCR detection. Streptavidin-coated magnetic beads were treated with biotinylated small molecule ligands for 30 minutes at room temperature to generate affinity resins for kinase assays. The liganded beads were blocked with excess biotin and washed with blocking buffer (SeaBlock (Pierce), 1% BSA, 0.05% Tween 20, 1 mM DTT) to remove unbound ligand and to reduce non-specific binding. Binding reactions were assembled by combining kinases, liganded affinity beads, and test compounds in 1× binding buffer (20% SeaBlock, 0.17×PBS, 0.05% Tween 20, 6 mM DTT). Test compounds were prepared as 111× stocks in 100% DMSO. Kds were determined using an 11-point 3-fold compound dilution series with three DMSO control points. All compounds for Kd measurements are distributed by acoustic transfer (non-contact dispensing) in 100% DMSO. The compounds were then diluted directly into the assays such that the final concentration of DMSO was 0.9%. All reactions performed in polypropylene 384-well plate. Each was a final volume of 0.02 ml. The assay plates were incubated at room temperature with shaking for 1 hour and the affinity beads were washed with wash buffer (1×PBS, 0.05% Tween 20). The beads were then resuspended in elution buffer (1×PBS, 0.05% Tween 20, 0.5 μM nonbiotinylated affinity ligand) and incubated at room temperature with shaking for 30 minutes. The kinase concentration in the eluates was measured by qPCR.
(§3) Binding constants (Kds) were calculated with a standard dose-response curve using the Hill equation: Response=Background+[Signal−Background/i+(Kd^Hill Slope/Dose^Hill Slope)]. The Hill Slope was set to −1. Curves were fitted using a non-linear least square fit with the Levenberg-Marquardt algorithm.

[1] = molecular target: T2, ABL1(E255K)-phosphorylated (Homo sapiens, UniProt P00519, E255K); assay: KINOMEscan competition binding assay, Kd; details: 11-point 3-fold dilution series
T2 construct: purchased Eurofins (KINOMEscan); host or cells: T7 phage in BL21-derived E. coli, or HEK-293
T2 sequence (P00519 whole entry E255K): as the sequence (P00519 whole entry) above, with E255K counted along it
Experimental: as §1, §2, §3

ABL1-nonphosphorylated = molecular target: T3, ABL1-nonphosphorylated (Homo sapiens, UniProt P00519); assay: KINOMEscan competition binding assay, Kd; details: 11-point 3-fold dilution series
T3 construct: purchased Eurofins (KINOMEscan); host or cells: T7 phage in BL21-derived E. coli, or HEK-293
T3 sequence (P00519 whole entry): as the sequence (P00519 whole entry) above
Experimental: as §1, §2, §3

[2] = test system: small cell lung carcinoma PDX SC6; assay: PDX-derived cell culture cytotoxicity (CellTiter-Glo); assay type: cell-based; details: 120 h; small cell lung carcinoma PDX SC6 (FIG. 13); 5 days
Experimental: (§4) PDX-derived cell cultures were obtained from tumors explanted from mice and isolated by mechanical and enzymatic dissociation. […] Cells were harvested and seeded in 96-wells plates at a density of 1.25 to 5×10^3 cells/well for cytotoxicity assays. Cells were incubated 48 h at 37° C. prior to addition of test molecules and vehicle (DMSO, 0.1%) at desired final concentrations. Cell viability was assessed before drugs' addition (To) and 5 days after test molecules addition by measuring ATP cell content using CellTiter-Glo® Luminescent Cell Viability Assay (Promega) according to the manufacturer's instructions. Luciferase activity was measured on a luminometer (PerkinElmer® EnVision™). Each concentration of compounds was tested in triplicate.
(§5) Viability was calculated as a percentage of ATP value compared to vehicle treated controls.
(§6) For PDX primary cell cultures, the tumour tissue was washed with PBS containing antibiotic-antimycotic and non-tumour tissue and necrotic tumour tissues were separated. The tumour tissue was transferred to a new dish and cut into 1-2 mm^3 fragments, resuspended in RPMI-1640 medium and centrifuged at 1,200 rpm for 6 min at room temperature. The pelleted material was resuspended with 15 mL of Tumour Cell Digestion Solution and incubated at 37° C. for 1 hour with agitation. Following further addition of media, centrifugation and passage through a […] cell strainer, the homogenous cell mixture was layered onto 15 mL of Ficoll-Paque PLUS in a 50 mL conical tube and centrifuged for 15 min at 1,600 rpm. The interface cells were collected, washed with media, separated by centrifugation at 1,200 rpm. The cell pellet was resuspended in serum free media supplemented with growth factors. 10,000 cells/wells were plated in a 96 well plate and incubated at 37° C., 5% CO2, 95% air and 100% relative humidity overnight. The cytotoxicity assay was conducted as above. IC50 values represent absolute IC50.

[3] = test system: brain carcinoma PDX GBM14-CHA; assay: as above; assay type: cell-based; details: 120 h; PDX brain carcinoma GBM14-CHA (FIG. 3); 5 days
Experimental: as §4, §5, §6

SMILES | Weight loss (%) (K562 CDX; 10 mg/kg/inj i.p. qd) | Optimal T/C (value) (K562 CDX; 10 mg/kg/inj i.p. qd) | tumour growth inhibition (K562 CDX) | Kd (ABL1-phosphorylated) | Kd [1] | Kd (ABL1-nonphosphorylated) | IC50 [2] | IC50 [3] | Weight loss (%) (K562 CDX; 5 mg/kg/inj i.p. qd) | Optimal T/C (value) (K562 CDX; 5 mg/kg/inj i.p. qd)
O=c1cc(-c2ccc(CCCC[P+](c3ccccc3)(c3ccccc3)c3ccccc3)cc2)oc2c(O)c(O)ccc12 [SND118, 4-[4-(7,8-dihydroxy-4-oxo-chromen-2-yl)phenyl]butyltriphenyl-phosphonium bromide] | 8% | 58*** | significantly inhibited tumour growth |  |  |  |  |  |  | 
O=c1cc(-c2ccc(CCCC[P+](c3ccccc3)(c3ccccc3)c3ccccc3)cc2)oc2c3c(ccc12)OCO3.[Br-] [SND123, 4-[4-(6-oxo-[1,3]dioxolo[4,5-h]chromen-8-yl)phenyl]butyl-triphenylphosphonium bromide] |  |  |  | 0.86 µM | 0.97 µM | 1.3 µM |  |  |  | 
COc1c(O)ccc2c(=O)cc(-c3ccc(CCCC[P+](c4ccccc4)(c4ccccc4)c4ccccc4)cc3)oc12.[Br-] [SND140, (4-(4-(7-hydroxy-8-methoxy-4-oxo-4H-chromen-2-yl)phenyl)butyl)triphenylphosphonium bromide] |  |  | significantly inhibited tumour growth | 0.7 µM | 0.66 µM | 1.5 µM | 7.02 µM | 6.47 µM | 5% | 69*
